pIC50: −log10 of the molar value.

In the first data set the target is T1, UT-B (Mus musculus, UniProt Q8VHL0).
T1 sequence (Q8VHL0 1-384): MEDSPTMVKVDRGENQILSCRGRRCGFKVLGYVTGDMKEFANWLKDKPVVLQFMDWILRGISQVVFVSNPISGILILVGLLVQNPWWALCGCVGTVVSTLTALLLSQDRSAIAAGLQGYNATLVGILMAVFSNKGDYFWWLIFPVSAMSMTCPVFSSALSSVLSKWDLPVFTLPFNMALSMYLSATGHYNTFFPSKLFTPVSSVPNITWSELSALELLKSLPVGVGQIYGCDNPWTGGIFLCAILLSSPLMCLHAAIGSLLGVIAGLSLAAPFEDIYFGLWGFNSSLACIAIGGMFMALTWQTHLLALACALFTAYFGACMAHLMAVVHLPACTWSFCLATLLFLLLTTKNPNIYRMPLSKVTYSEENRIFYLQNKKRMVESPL
The experiment in a line: Erythrocyte lysis assay of UT-B inhibition. The class given is cell-based.
Conditions: not given
Set-up: Screening was performed using mouse erythrocytes, which strongly express UT-B; endogenous in cells; host or cells: erythrocytes in whole blood of wild-type CD1 mice. As for the experimental part: Screening was performed using mouse erythrocytes, which strongly express UT-B and are highly water permeable because the cells also express aquaporin-1 (AQP1) water channels. The screening method involved assay of erythrocyte lysis in response to a large, outwardly directed gradient of acetamide, a urea analog that is transported efficiently by UT-B. A large, outwardly directed gradient of acetamide causes transient cell swelling, but little cell lysis, because UT-B-facilitated acetamide efflux limits water influx (see FIG. 1A). UT-B inhibition prevents acetamide efflux, allowing unopposed cell swelling and consequent cell lysis, which was recorded by reduced near-infrared light absorption at 710 nm.
Primary screening was done using a collection of 100,000 diverse, drug-like compounds from commercial sources (ChemDiv, San Diego, Calif.; Asinex, Winston-Salem, N.C.). […] Vigorous mixing was achieved by repeated pipetting. Erythrocyte lysis was quantified by absorbance at 710 nm wavelength, made within 5 min after hypo-osmolar shock. […] For analysis of structure-activity relationships >900 commercially available analogs (ChemDiv and Asinex) were tested.
Take `CCc1ccc(S(=O)(=O)c2nnn3c2nc(N2CCOCC2)c2sccc23)cc1` [Compound 2bq]: the negative logarithm of the IC50 (pIC50) is 5.24.

Still in this data set, the particulars now being: Table 1, commercially available analogues, erythrocyte lysis assay; read-out: IC50.
As for `NC(=O)C1CCN(c2nc3c(S(=O)(=O)c4ccccc4)nnn3c3ccsc23)CC1` [Compound 2aa], the pIC50 is 5.12.

On to `COCCCNc1nc2c(S(=O)(=O)c3ccccc3)nnn2c2ccsc12` [Compound 2ab, {3-benzenesulfonyl-thieno[2,3-e][1,2,3]triazolo[1,5-a]pyrimidin-5-yl}-3-methoxypropyl-amine], for which the pIC50 is 5.36.

With `Cc1ccc(S(=O)(=O)c2nnn3c2nc(NCc2ccco2)c2sccc23)cc1` [Compound 2ac, furan-2-ylmethyl-[3-(4-methyl-benzenesulfonyl)-thieno[2,3-e][1,2,3]triazolo[1,5-a]pyrimidin-5-yl]-amine], the pIC50 was 5.67.

On to `Cc1ccc(S(=O)(=O)c2nnn3c2nc(NCC2CCCO2)c2sccc23)cc1` (stereo not drawn) [Compound 2ae, tetrahydrofuran-2-ylmethyl-[3-(4-methyl-benzenesulfonyl)-thieno[2,3-e][1,2,3]triazolo[1,5-a]pyrimidin-5-yl]-amine], for which the pIC50 was 5.24.

Regarding `Cc1ccc(S(=O)(=O)c2nnn3c2nc(NCCCOC(C)C)c2sccc23)cc1` [Compound 2af, {3-[4-methyl-benzenesulfonyl]-thieno[2,3-e][1,2,3]triazolo[1,5-a]pyrimidin-5-yl}-3-(1-methylethoxyl)propyl-amine], the pIC50 was 4.93.

For the molecule `Cc1ccc(S(=O)(=O)c2nnn3c2nc(NC(C)c2ccccc2)c2sccc23)cc1` (stereo not drawn) [Compound 2ag, [3-(4-methyl-benzenesulfonyl)-thieno[2,3-e][1,2,3]triazolo[1,5-a]pyrimidin-5-yl]-(1-phenyl-1-methyl)methyl-amine], the pIC50 is 4.95.

Consider `COc1cccc(CNc2nc3c(S(=O)(=O)c4ccc(C)cc4)nnn3c3ccsc23)c1` [Compound 2ah, [3-(4-methyl-benzenesulfonyl)-thieno[2,3-e][1,2,3]triazolo[1,5-a]pyrimidin-5-yl]-(3-methoxy-benzyl)-amine], for which the pIC50 was 5.56.

Take `COCCNc1nc2c(S(=O)(=O)c3ccc(C)cc3)nnn2c2ccsc12` [Compound 2ai, {3-[4-methyl-benzenesulfonyl]-thieno[2,3-e][1,2,3]triazolo[1,5-a]pyrimidin-5-yl}-2-methoxyethyl-amine]: the negative-log IC50 (pIC50) was 5.54.

For the molecule `CCN1CCN(c2nc3c(S(=O)(=O)c4ccc(C)cc4)nnn3c3ccsc23)CC1` [Compound 2ak], the pIC50 is 5.10.

`Cc1ccc(S(=O)(=O)c2nnn3c2nc(NC2CCCC2)c2sccc23)cc1` [Compound 2al]: the pIC50 was 5.20.

For `CCN(CC)c1nc2c(S(=O)(=O)c3ccc(C)c(C)c3)nnn2c2ccsc12` [Compound 2ap], the pIC50 was 5.60.

As for `Cc1ccc(S(=O)(=O)c2nnn3c2nc(N2CCC(C(N)=O)CC2)c2sccc23)cc1C` [Compound 2aq], the pIC50 was 5.67.

`Cc1ccc(S(=O)(=O)c2nnn3c2nc(NC(C)C)c2sccc23)cc1C` [Compound 2av]: the pIC50 is 5.66.

Consider `Cc1ccc(S(=O)(=O)c2nnn3c2nc(NCCCOC(C)C)c2sccc23)cc1C` [Compound 2ax, {3-[3,4-dimethyl-benzenesulfonyl]-thieno[2,3-e][1,2,3]triazolo[1,5-a]pyrimidin-5-yl}-3-(1-methylethoxyl)propyl-amine], for which the pIC50 is 5.61.

On to `COc1cccc(CNc2nc3c(S(=O)(=O)c4ccc(C)c(C)c4)nnn3c3ccsc23)c1` [Compound 2ay, [3-(3,4-dimethyl-benzenesulfonyl)-thieno[2,3-e][1,2,3]triazolo[1,5-a]pyrimidin-5-yl]-(3-methoxy-benzyl)-amine], for which the pIC50 was 5.42.

In the case of `COCCNc1nc2c(S(=O)(=O)c3ccc(C)c(C)c3)nnn2c2ccsc12` [Compound 2ba, {3-[3,4-dimethyl-benzenesulfonyl]-thieno[2,3-e][1,2,3]triazolo[1,5-a]pyrimidin-5-yl}-2-methoxyethyl-amine], the pIC50 was 5.60.

As for `Cc1ccc(S(=O)(=O)c2nnn3c2nc(NC2CCCCC2)c2sccc23)cc1C` [Compound 2bb], the pIC50 was 5.09.

As for `Cc1ccc(S(=O)(=O)c2nnn3c2nc(NCc2ccc(F)cc2)c2sccc23)cc1C` [Compound 2be, [3-(3,4-dimethyl-benzenesulfonyl)-thieno[2,3-e][1,2,3]triazolo[1,5-a]pyrimidin-5-yl]-(4-fluoro-benzyl)-amine], the pIC50 was 5.25.

Consider `COCCCNc1nc2c(S(=O)(=O)c3ccc(Cl)cc3)nnn2c2ccsc12` [Compound 2bj, {3-[4-chloro-benzenesulfonyl]-thieno[2,3-e][1,2,3]triazolo[1,5-a]pyrimidin-5-yl}-3-methoxypropyl-amine], for which the pIC50 was 5.64.

Consider `CC(C)c1ccc(S(=O)(=O)c2nnn3c2nc(NCC2CCCO2)c2sccc23)cc1` (stereo not drawn) [Compound 2bk, tetrahydrofuran-2-ylmethyl-[3-(4-isopropyl-benzenesulfonyl)-thieno[2,3-e][1,2,3]triazolo[1,5-a]pyrimidin-5-yl]-amine], for which the pIC50 is 5.57.

Regarding `CCOCCCNc1nc2c(S(=O)(=O)c3ccc(C(C)C)cc3)nnn2c2ccsc12` [Compound 2bl, {3-[4-isopropyl-benzenesulfonyl]-thieno[2,3-e][1,2,3]triazolo[1,5-a]pyrimidin-5-yl}-3-ethoxylpropyl-amine], the pIC50 was 5.39.

As for `CCc1ccc(S(=O)(=O)c2nnn3c2nc(NC2CCCC2)c2sccc23)cc1` [Compound 2bz], the pIC50 is 5.81.

As to `CCc1ccc(S(=O)(=O)c2nnn3c2nc(N2CCN(C)CC2)c2sccc23)cc1` [Compound 2cc], the pIC50 was 6.23.

In the case of `CCc1ccc(S(=O)(=O)c2nnn3c2nc(N2CCN(CC)CC2)c2sccc23)cc1` [Compound 2cd], the pIC50 is 4.92.

As for `CCc1ccc(S(=O)(=O)c2nnn3c2nc(NCCN(C)C)c2sccc23)cc1` [Compound 2ch], the pIC50 is 5.07.

As for `Cc1ccc(C)c(S(=O)(=O)c2nnn3c2nc(N2CCC(C(N)=O)CC2)c2sccc23)c1` [Compound 2ci], the pIC50 was 5.48.

For `CCOCCCNc1nc2c(S(=O)(=O)c3cc(C)ccc3C)nnn2c2ccsc12` [Compound 2ck, {3-[2,5-dimethyl-benzenesulfonyl]-thieno[2,3-e][1,2,3]triazolo[1,5-a]pyrimidin-5-yl}-3-ethoxypropyl-amine], the pIC50 is 5.01.

On to `Cc1ccc(C)c(S(=O)(=O)c2nnn3c2nc(NCCCOC(C)C)c2sccc23)c1` [Compound 2cl, {3-[2,5-dimethyl-benzenesulfonyl]-thieno[2,3-e][1,2,3]triazolo[1,5-a]pyrimidin-5-yl}-3-(1-methylethoxyl)propyl-amine], for which the negative logarithm of the IC50 (pIC50) is 5.69.

As to `Cc1ccc(C)c(S(=O)(=O)c2nnn3c2nc(NC(C)c2ccccc2)c2sccc23)c1` (stereo not drawn) [Compound 2cm, [3-(2,5-dimethyl-benzenesulfonyl)-thieno[2,3-e][1,2,3]triazolo[1,5-a]pyrimidin-5-yl]-(1-phenyl-1-methyl)methyl-amine], the pIC50 is 6.15.

For `Cc1ccc(C)c(S(=O)(=O)c2nnn3c2nc(NCc2ccc(F)cc2)c2sccc23)c1` [Compound 2cp, [3-(2,5-dimethyl-benzenesulfonyl)-thieno[2,3-e][1,2,3]triazolo[1,5-a]pyrimidin-5-yl]-(4-fluoro-benzyl)-amine], the pIC50 was 6.17.

Consider `Cc1ccc(C)c(S(=O)(=O)c2nnn3c2nc(NCc2ccccc2)c2sccc23)c1` [Compound 2cq, [3-(2,5-dimethyl-benzenesulfonyl)-thieno[2,3-e][1,2,3]triazolo[1,5-a]pyrimidin-5-yl]-benzyl-amine], for which the pIC50 is 5.78.

Consider `Cc1ccc(C)c(S(=O)(=O)c2nnn3c2nc(NCc2ccco2)c2sccc23)c1` [Compound 2cs, furan-2-ylmethyl-[3-(2,5-dimethyl-benzenesulfonyl)-thieno[2,3-e][1,2,3]triazolo[1,5-a]pyrimidin-5-yl]-amine], for which the pIC50 was 5.57.

Consider `NC(=O)C1CCN(c2nc3c(S(=O)(=O)c4cccc(Cl)c4)nnn3c3ccsc23)CC1` [Compound 2cv], for which the negative-log IC50 (pIC50) was 5.50.

`O=S(=O)(c1cccc(Cl)c1)c1nnn2c1nc(NCc1cccs1)c1sccc12` [Compound 2cw, {3-[3-chloro-benzenesulfonyl]-thieno[2,3-e][1,2,3]triazolo[1,5-a]pyrimidin-5-yl}-thiophen-2-ylmethyl-amine]: the pIC50 was 5.68.

Test system in another data set: not listed separately
The experiment in a line: In vitro metabolic stability in hepatic microsomes. The class given is in vitro ADME, rat. The following applies: 10 min, liver microsomes, NADPH, compound 5 μM.
Method: Compounds, each at 5 μM, were incubated for specified times at 37° C. with rat liver microsomes (1 mg protein/ml; Sigma-Aldrich, St. Louis, Mo.) in potassium phosphate buffer (100 mM) containing 1 mM NADPH. The mixture was then chilled on ice, and 0.5 ml of ice-cold ethyl acetate was added.
Consider `COCCCNc1nc2c(S(=O)(=O)c3ccccc3)nnn2c2ccsc12` [Compound 2ab, {3-benzenesulfonyl-thieno[2,3-e][1,2,3]triazolo[1,5-a]pyrimidin-5-yl}-3-methoxypropyl-amine], for which the “% Remaining after 10 min incubation with liver microsomes” value is on record as 27%.

Values taken from patent publication US9303042B2, “Triazolothienopyrimidine compound inhibitors of urea transporters and methods of using inhibitors” (The Regents of the University of California, priority 2012, dated 2016).
